Test results as given in the CheMixHub drug solubility set.

Experiment: xn = mol fraction of the nth substance listed, in the solute-free solvent

CC(=O)OC(OC(C)=O)c1ccc([N+](=O)[O-])o1 + C1CCOC1 + CC#N
solubility (g/100 g solution)
Conditions | 278.15 K | 283.15 K | 288.15 K | 293.15 K | 298.15 K | 303.15 K | 308.15 K | 313.15 K | 318.15 K | 323.15 K
x2 = 0.1463 | 5.45 | 7.32 | 9.5 | 12.1 | 15 | 18.6 | 22.7 | 27.8 | 33.5 | 40
x2 = 0.2961 | 9.28 | 11.7 | 14.9 | 18.5 | 23.1 | 28.4 | 34.3 | 40.7 | 47.5 | 54.4
x2 = 0.4354 | 12.3 | 15.2 | 19.6 | 24.6 | 29.7 | 35.9 | 42.6 | 49.4 | 56 | 62.3
x2 = 0.5816 | 14.6 | 17.7 | 23 | 28.6 | 34.3 | 40.8 | 47.9 | 54.4 | 61 | 67.2
x2 = 0.7445 | 17.2 | 21.4 | 26.5 | 32.5 | 38.5 | 45.1 | 51.9 | 58.3 | 64.6 | 70.5
x2 = 0.8896 | 23.6 | 28 | 33.2 | 39.3 | 45.3 | 51.9 | 57.8 | 63.6 | 68.8 | 73.9

O=C(O)c1ccc(-n2nc(-c3ccccc3O)nc2-c2ccccc2O)cc1 + CC#N + O
298.15 K
Conditions | solubility (g/100 g solution)
x2 = 0.04651 | 0.126
x2 = 0.0989 | 0.161
x2 = 0.1583 | 0.316
x2 = 0.2264 | 0.736
x2 = 0.3051 | 1.86
x2 = 0.397 | 3.21
x2 = 0.506 | 4.64
x2 = 0.6372 | 5.9
x2 = 0.798 | 5.08

CC(C)Oc1ccc2c(=O)c(-c3ccccc3)coc2c1 + CC(=O)N(C)C + CCO
solubility (g/100 g solution)
Conditions | 278.15 K | 283.15 K | 288.15 K | 293.15 K | 298.15 K | 303.15 K | 308.15 K | 313.15 K | 318.15 K | 323.15 K
x2 = 0.1146 | 1.53 | 1.91 | 2.45 | 3.3 | 4.13 | 5.36 | 7.01 | 8.71 | 11 | 14
x2 = 0.2681 | 2.21 | 2.72 | 3.46 | 4.21 | 5.26 | 6.49 | 8.02 | 9.92 | 12.2 | 15.1
x2 = 0.4379 | 4.02 | 4.85 | 5.82 | 7.08 | 8.67 | 10.2 | 12.4 | 14.5 | 17.7 | 21.8
x2 = 0.6771 | 6.41 | 8.04 | 9.6 | 11.1 | 13 | 15.4 | 18 | 21.2 | 25 | 28.9

Cc1cc(Cl)cc(C(=O)O)c1N + CC(C)=O + CC#N
solubility (g/100 g solution)
Conditions | 278.15 K | 283.15 K | 288.15 K | 293.15 K | 298.15 K | 303.15 K | 308.15 K | 313.15 K | 318.15 K | 323.15 K
x2 = 0.1114 | 1.03 | 1.1 | 1.25 | 1.42 | 1.6 | 1.82 | 2.12 | 2.5 | 2.98 | 3.61
x2 = 0.2335 | 1.51 | 1.63 | 1.87 | 2.13 | 2.41 | 2.74 | 3.2 | 3.76 | 4.46 | 5.3
x2 = 0.3677 | 1.98 | 2.16 | 2.48 | 2.84 | 3.21 | 3.65 | 4.26 | 5 | 5.89 | 6.95
x2 = 0.516 | 2.46 | 2.68 | 3.09 | 3.54 | 4 | 4.55 | 5.3 | 6.22 | 7.3 | 8.55
x2 = 0.6807 | 2.92 | 3.19 | 3.69 | 4.24 | 4.78 | 5.44 | 6.32 | 7.42 | 8.69 | 10.1
x2 = 0.8648 | 3.39 | 3.71 | 4.29 | 4.92 | 5.55 | 6.31 | 7.34 | 8.61 | 10.1 | 11.7

CCc1cccc2c3c([nH]c12)C(CC)(CC(=O)O)OCC3 (stereo unspecified) + CC(C)=O + CCCCCC
solubility (g/100 g solution)
Conditions | 278.15 K | 283.15 K | 288.15 K | 293.15 K | 298.15 K | 303.15 K | 308.15 K | 313.15 K | 318.15 K | 323.15 K
x2 = 0.2707 | 4.23 | 4.59 | 4.94 | 5.31 | 5.68 | 6.06 | 6.49 | 6.82 | 7.19 | 7.56
x2 = 0.4972 | 13.3 | 14.4 | 15.4 | 16.4 | 17.8 | 19 | 19.9 | 20.9 | 22 | 23
x2 = 0.69 | 22.1 | 23.7 | 25.3 | 26.8 | 28.7 | 31 | 32.8 | 34.7 | 36.7 | 38.4
x2 = 0.8558 | 20.2 | 21.8 | 23.3 | 24.9 | 26.6 | 28.4 | 29.9 | 31.4 | 33.3 | 34.8

Cc1cc(Cl)cc(C(=O)O)c1N + CC(C)=O + CCCCCC
solubility (g/100 g solution)
Conditions | 278.15 K | 283.15 K | 288.15 K | 293.15 K | 298.15 K | 303.15 K | 308.15 K | 313.15 K | 318.15 K | 323.15 K
x2 = 0.2386 | 0.677 | 0.753 | 0.884 | 1.03 | 1.18 | 1.35 | 1.58 | 1.88 | 2.21 | 2.59
x2 = 0.4322 | 1.29 | 1.42 | 1.66 | 1.92 | 2.18 | 2.5 | 2.92 | 3.45 | 4.05 | 4.74
x2 = 0.5923 | 1.87 | 2.05 | 2.39 | 2.75 | 3.12 | 3.56 | 4.16 | 4.9 | 5.75 | 6.71
x2 = 0.7271 | 2.4 | 2.64 | 3.07 | 3.53 | 3.99 | 4.55 | 5.31 | 6.25 | 7.32 | 8.52
x2 = 0.842 | 2.91 | 3.2 | 3.71 | 4.26 | 4.81 | 5.48 | 6.38 | 7.5 | 8.77 | 10.2
x2 = 0.9411 | 3.39 | 3.72 | 4.31 | 4.95 | 5.58 | 6.35 | 7.38 | 8.66 | 10.1 | 11.7

N#CC(c1ccc(Cl)cc1)c1c(Cl)cc(-n2ncc(=O)[nH]c2=O)cc1Cl (stereo unspecified) + CC(C)=O + CCO
solubility (g/100 g solution)
Conditions | 283.15 K | 288.15 K | 293.15 K | 298.15 K | 303.15 K | 308.15 K | 313.15 K | 318.15 K | 323.15 K
x2 = 0.1655 | 2.81 | 3.32 | 3.87 | 4.51 | 5.25 | 6.03 | 6.91 | 7.89 | 8.92
x2 = 0.3459 | 4.12 | 4.81 | 5.56 | 6.42 | 7.41 | 8.46 | 9.6 | 10.9 | 12.2
x2 = 0.5434 | 5.39 | 6.26 | 7.2 | 8.24 | 9.47 | 10.8 | 12.2 | 13.7 | 15.2
x2 = 0.7604 | 6.63 | 7.67 | 8.77 | 10 | 11.4 | 13 | 14.6 | 16.3 | 18.1

Cc1cc(Cl)cc(C(=O)O)c1N + CC(C)=O + CO
solubility (g/100 g solution)
Conditions | 278.15 K | 283.15 K | 288.15 K | 293.15 K | 298.15 K | 303.15 K | 308.15 K | 313.15 K | 318.15 K | 323.15 K
x2 = 0.0885 | 1.19 | 1.38 | 1.68 | 1.99 | 2.4 | 2.86 | 3.39 | 4.09 | 4.87 | 5.8
x2 = 0.1908 | 1.63 | 1.86 | 2.21 | 2.59 | 3.05 | 3.58 | 4.22 | 5.04 | 5.96 | 7.04
x2 = 0.3105 | 2.08 | 2.33 | 2.75 | 3.19 | 3.7 | 4.29 | 5.04 | 5.98 | 7.04 | 8.27
x2 = 0.4522 | 2.52 | 2.8 | 3.28 | 3.79 | 4.35 | 5.01 | 5.85 | 6.92 | 8.12 | 9.48
x2 = 0.6228 | 2.96 | 3.27 | 3.81 | 4.39 | 4.99 | 5.71 | 6.66 | 7.84 | 9.18 | 10.7
x2 = 0.832 | 3.4 | 3.74 | 4.34 | 4.98 | 5.64 | 6.42 | 7.47 | 8.77 | 10.2 | 11.9

O=CC(O)C(O)C(O)CO (stereo unspecified) + CC(C)O + CCCCCC
solubility (g/100 g solution)
Conditions | x2 = 0.1 | x2 = 0.2 | x2 = 0.3 | x2 = 0.4 | x2 = 0.5 | x2 = 0.6 | x2 = 0.7 | x2 = 0.8 | x2 = 0.9
283.15 K | 0.0751 | 0.111 | 0.142 | 0.164 | 0.188 | 0.271 | 0.405 | 0.615 | 0.82
293.15 K | 0.0952 | 0.126 | 0.198 | 0.238 | 0.307 | 0.453 | 0.646 | 0.819 | 1.12
303.15 K | 0.112 | 0.13 | 0.233 | 0.362 | 0.471 | 0.665 | 1 | 1.4 | 2.1
313.15 K | 0.129 | 0.16 | 0.277 | 0.518 | 0.76 | 1.08 | 1.61 | 2.29 | 3.38
323.15 K | 0.14 | 0.247 | 0.388 | 0.792 | 1.16 | 1.83 | 2.77 | 4 | 6.03

CC1CCC2(C(=O)O)CCC3(C)C(=CCC4C5(C)CCC(O)C(C)(C)C5CCC43C)C2C1C (stereo unspecified) + CC(C)O + O
solubility (g/100 g solution)
Conditions | 293.15 K | 298.15 K | 303.15 K | 308.15 K | 313.15 K | 318.15 K | 323.15 K | 328.15 K | 333.15 K
x2 = 0.0908 | 0.00219 | 0.00363 | 0.00394 | 0.00575 | 0.00586 | 0.00613 | 0.00653 | 0.00668 | 0.0109
x2 = 0.1389 | 0.00363 | 0.00474 | 0.00741 | 0.00959 | 0.0147 | 0.0158 | 0.0187 | 0.036 | 0.0388
x2 = 0.1969 | 0.0293 | 0.0352 | 0.0473 | 0.0614 | 0.0752 | 0.0821 | 0.0985 | 0.111 | 0.13
x2 = 0.2681 | 0.0944 | 0.118 | 0.13 | 0.142 | 0.158 | 0.22 | 0.239 | 0.282 | 0.33
x2 = 0.3575 | 0.146 | 0.195 | 0.236 | 0.284 | 0.359 | 0.387 | 0.493 | 0.514 | 0.656
x2 = 0.4734 | 0.171 | 0.276 | 0.328 | 0.378 | 0.529 | 0.672 | 1.01 | 1.16 | 1.21

O=C(O)c1ccc(-n2nc(-c3ccccc3O)nc2-c2ccccc2O)cc1 + CC(O)CO + CC#N
298.15 K
Conditions | solubility (g/100 g solution)
x2 = 0.05655 | 2.43
x2 = 0.1188 | 4.43
x2 = 0.1878 | 6.62
x2 = 0.2645 | 8.48
x2 = 0.3504 | 9.81
x2 = 0.4473 | 10.7
x2 = 0.5573 | 11.3
x2 = 0.6833 | 11.4
x2 = 0.8292 | 11

O=C(O)c1ccc(-n2nc(-c3ccccc3O)nc2-c2ccccc2O)cc1 + CC(O)CO + CCO
298.15 K
Conditions | solubility (g/100 g solution)
x2 = 0.06303 | 11.6
x2 = 0.1315 | 12.2
x2 = 0.206 | 12.8
x2 = 0.2875 | 13.4
x2 = 0.3771 | 13.7
x2 = 0.4759 | 13.4
x2 = 0.5855 | 12.4
x2 = 0.7077 | 11.2
x2 = 0.8449 | 10.1

O=C(O)c1ccc(-n2nc(-c3ccccc3O)nc2-c2ccccc2O)cc1 + CC(O)CO + CO
298.15 K
Conditions | solubility (g/100 g solution)
x2 = 0.0447 | 13.5
x2 = 0.09525 | 14.2
x2 = 0.1529 | 14.4
x2 = 0.2192 | 14.6
x2 = 0.2963 | 14.2
x2 = 0.3871 | 13.7
x2 = 0.4956 | 12.9
x2 = 0.6275 | 11.8
x2 = 0.7912 | 10.4
